Results: article PMC11793105, “A kalihinol analog disrupts apicoplast function and vesicular trafficking in P. falciparum malaria” (Science (New York, N.Y.), 2024)
Where two headings read alike, the source gives them in different places.

Columns and labels:
[1] = system: P. falciparum 3D7 (MRA-102, drug sensitive); assay: SYBR Green I growth inhibition assay, 3D7; type: cell-based; conditions: Plasmodium falciparum
Protocol: (§1) Fig. 1. […] (B) SYBR Green–based dose response assays were conducted on early-ring stage parasites (6 hours after invasion). […] 3D7 WT (blue), NF54 (green), drug-resistant strains Dd2 (red), HB3 (black), W2 (gray), and D10-ACP-GFP (purple) lines (Sigmoidal, 4PL, X is concentration, n ≥ 3, nonlinear regression, CI: 95%). (C) Schematic diagram of the development of P. falciparum after two consecutive erythrocytic cycles. The time points at which MED6-189 was introduced are depicted in green. HPS, hours post synchronization. […] The images depict various developmental stages of the parasite’s intraerythrocytic life cycle. Bordered images represent time points when drug was first introduced (n = 3 biological replicates, P < 0.05).
(§2) Detailed information on materials and methods is available in the supplementary materials. […] P. knowlesi assays were quantitatively measured by flow cytometry using SYBR Green I and Mitrotracker Deep Red, as previously described ([84], [85]), on a Beckman Coulter CytoFLEX. […]
(§3) P. falciparum in vitro SYBR green fluorescence-based assays The anti-malarial activity of individual analogues were evaluated in-vitro against P. falciparum 3D7 (MRA-102, drug […]
(§4) green-I based fluorescence assay. Parasite growth rate and stages of development were determined via microscopy through Giemsa-stained smears of the cultures. […]

[2] = system: P. falciparum W2 (MRA-157, chloroquine resistant); assay: SYBR Green I growth inhibition assay, W2; type: cell-based, Plasmodium falciparum; conditions: early-ring stage, 72 h exposure
Protocol: as §1, §2, §3, §4

P. falciparum = assay: Drug-drug interaction (fractional inhibitory concentration, isobologram) assay; type: cell-based, Plasmodium falciparum
Excerpt: Fig. 2. […] Nuclei are stained with 4’,6-diamidino-2-phenylindole (DAPI; blue). […] (B) Dose-dependent interactions between MED6-189 (blue) and various antimalarials with known mechanisms of action (red). […] The regression line represents a nonlinear regression (variable slope with four parameters), with significant differences considered if P < 0.05. […] Isobologram curves are expected to be parallel to the diagonal for additive drug pairs, concave for synergistic drug pairs, and convex for antagonistic drug pairs. […] The analysis was performed using a two-way ANOVA, n = 3, with P < 0.05 significance.

HeLa = assay: Human cell line activity, HeLa; type: cell-based; conditions: read-out: IC50 (µM) HeLa
erythrocytes = assay: Hemolytic activity assay (Giemsa smeared culture images); type: cell-based; conditions: concentrations up to 10 μM
Protocol: and two formamide derivatives.
2 and GB209-3 compounds tested after 48Hr and 72Hr drug incubation. […]

[3] = molecular target: BSEP (bile salt export pump) (Homo sapiens, UniProt O95342); assay: Enhanced Cross Screen Panel (eXP): BSEP inhibition
BSEP (bile salt export pump), sequence (O95342 whole entry, species assumed): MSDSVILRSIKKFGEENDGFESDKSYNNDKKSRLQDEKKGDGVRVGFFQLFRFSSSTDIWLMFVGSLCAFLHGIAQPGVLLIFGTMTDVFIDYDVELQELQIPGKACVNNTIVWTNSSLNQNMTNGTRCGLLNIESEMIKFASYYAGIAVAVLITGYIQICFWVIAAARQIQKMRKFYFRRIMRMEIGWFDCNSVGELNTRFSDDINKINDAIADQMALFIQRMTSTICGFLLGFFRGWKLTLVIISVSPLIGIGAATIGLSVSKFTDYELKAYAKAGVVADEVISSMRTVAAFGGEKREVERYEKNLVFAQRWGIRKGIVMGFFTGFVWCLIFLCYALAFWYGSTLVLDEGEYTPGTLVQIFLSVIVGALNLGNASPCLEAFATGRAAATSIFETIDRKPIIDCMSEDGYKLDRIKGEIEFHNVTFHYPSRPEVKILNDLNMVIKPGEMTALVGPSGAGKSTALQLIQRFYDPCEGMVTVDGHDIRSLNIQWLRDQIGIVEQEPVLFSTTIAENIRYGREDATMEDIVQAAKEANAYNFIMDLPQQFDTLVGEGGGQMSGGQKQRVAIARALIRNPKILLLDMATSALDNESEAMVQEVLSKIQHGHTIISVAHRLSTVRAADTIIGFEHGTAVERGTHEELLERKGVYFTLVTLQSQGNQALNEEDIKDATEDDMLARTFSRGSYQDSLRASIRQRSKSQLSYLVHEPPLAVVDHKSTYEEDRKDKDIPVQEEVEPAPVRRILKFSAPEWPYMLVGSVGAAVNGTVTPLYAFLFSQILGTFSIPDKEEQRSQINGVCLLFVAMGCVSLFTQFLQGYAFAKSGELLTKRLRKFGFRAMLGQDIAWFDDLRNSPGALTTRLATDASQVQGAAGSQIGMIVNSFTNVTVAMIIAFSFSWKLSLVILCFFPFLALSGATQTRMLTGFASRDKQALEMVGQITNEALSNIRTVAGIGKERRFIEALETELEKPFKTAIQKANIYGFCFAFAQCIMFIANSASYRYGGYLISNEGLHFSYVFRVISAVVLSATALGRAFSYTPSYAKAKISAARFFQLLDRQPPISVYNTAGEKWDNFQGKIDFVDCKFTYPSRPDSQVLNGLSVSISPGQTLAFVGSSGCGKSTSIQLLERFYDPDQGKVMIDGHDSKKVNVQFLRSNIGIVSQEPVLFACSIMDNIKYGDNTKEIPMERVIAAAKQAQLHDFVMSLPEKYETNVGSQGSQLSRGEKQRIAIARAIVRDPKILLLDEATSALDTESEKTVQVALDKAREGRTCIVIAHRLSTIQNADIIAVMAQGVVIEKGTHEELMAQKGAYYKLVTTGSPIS

## [C-]#[N+][C@]1(C)CC[C@H]2[C@@H]([C@@H](C(C)C)CC[C@]2(C)[N+]#[C-])[C@H]1O [MED6-189]
[1]; 3D7, read-out: IC50 (µM) P. falciparum (3D7)
  IC50: 0.015 µM
[1]; 3D7, early-ring stage (6 h after invasion), 72 h exposure, read-out: IC50
  IC50: 0.014 ± 0.002 µM
[2]; Plasmodium falciparum, W2, 72 h
  IC50: 27 ± 5 nM
[2]
  IC50: 26.7 nM
P. falciparum; MED6-189 in combination with atovaquone (additive)
  FIC score: 0.91 ± 0.2
P. falciparum; MED6-189 in combination with chloroquine (additive)
  FIC score: 1.71 ± 0.4
HeLa
  IC50: 9.6 µM
erythrocytes
  hemolytic activity: no hemolytic activity
[3]
  IC50: 50000 nM
